Assay results reported in the supplement of paper PMC10307832.

Assays:
Assay in all cases: relative viability (nuclei count vs DMSO), 5 days (fraction); higher = more cells survive
Vemurafenib + Dasatinib = compound: CCCS(=O)(=O)Nc1ccc(F)c(C(=O)c2c[nH]c3ncc(-c4ccc(Cl)cc4)cc23)c1F [Vemurafenib] + Cc1nc(Nc2ncc(C(=O)Nc3c(C)cccc3Cl)s2)cc(N2CCN(CCO)CC2)n1 [Dasatinib] (partner 0.075 µM)
In short: (§1)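 Relative viability divides the nuclei count in treated wells by that in vehicle wells. Lung cancer cell lines were seeded in 1536-well plates, dosed by pin tool the next day, and fixed and stained after 5 days in one step with final 0.05% Triton X-100, 1% formaldehyde and 1 ug/ml Hoechst. Dosing was a single drug or a fixed anchor-drug dose plus five library-drug doses (not always all listed) in √10 steps, and values are medians of duplicate plates imaged at 4×.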

OSI-027 + Bortezomib = compound: COc1cccc2cc(-c3nc([C@H]4CC[C@H](C(=O)O)CC4)n4ncnc(N)c34)[nH]c12 [OSI-027] + CC(C)C[C@H](NC(=O)[C@H](Cc1ccccc1)NC(=O)c1cnccn1)B(O)O [Bortezomib] (partner 0.002 µM)
In short: as §1

OSI-027 + Olaparib = compound: COc1cccc2cc(-c3nc([C@H]4CC[C@H](C(=O)O)CC4)n4ncnc(N)c34)[nH]c12 [OSI-027] + O=C(c1cc(Cc2n[nH]c(=O)c3ccccc23)ccc1F)N1CCN(C(=O)C2CC2)CC1 [Olaparib] (partner 8 µM)
In short: as §1

Alpelisib + Decitabine = compound: Cc1nc(NC(=O)N2CCC[C@H]2C(N)=O)sc1-c1ccnc(C(C)(C)C(F)(F)F)c1 [Alpelisib] + Nc1ncn([C@H]2C[C@H](O)[C@@H](CO)O2)c(=O)n1 [Decitabine] (partner 2 µM)
In short: as §1

Cell Line	relative viability (Vemurafenib + Dasatinib; first compound 0.03162 µM)	relative viability (Vemurafenib + Dasatinib; first compound 1 µM)	relative viability (OSI-027 + Bortezomib; first compound 0.01 µM)	relative viability (OSI-027 + Bortezomib; first compound 0.03162 µM)	relative viability (OSI-027 + Bortezomib; first compound 0.1 µM)	relative viability (OSI-027 + Bortezomib; first compound 0.3162 µM)	relative viability (OSI-027 + Bortezomib; first compound 1 µM)	relative viability (OSI-027 + Olaparib; first compound 0.01 µM)	relative viability (OSI-027 + Olaparib; first compound 0.03162 µM)	relative viability (OSI-027 + Olaparib; first compound 0.1 µM)	relative viability (OSI-027 + Olaparib; first compound 0.3162 µM)	relative viability (OSI-027 + Olaparib; first compound 1 µM)	relative viability (Alpelisib + Decitabine; first compound 0.04 µM)	relative viability (Alpelisib + Decitabine; first compound 0.1265 µM)	relative viability (Alpelisib + Decitabine; first compound 0.4 µM)	relative viability (Alpelisib + Decitabine; first compound 1.265 µM)	relative viability (Alpelisib + Decitabine; first compound 4 µM)	relative viability (Vemurafenib + Dasatinib; first compound 0.1 µM)	relative viability (Vemurafenib + Dasatinib; first compound 0.3162 µM)
LOU-NH91	0.509	0.572	0.452	0.486	0.473	0.546	0.455	0.91	0.907	0.844	0.843	0.638	0.823	0.781	0.79	0.679	0.648		
LU99A	0.425	0.431	1.11	0.967	0.981	0.604	0.252	0.279	0.231	0.251	0.201	0.2	0.822	0.838	0.899	0.666	0.579	0.554	0.389
LXF-289	0.203	0.181	1.03	1.05	1.05	0.984	0.837	1.07	1.05	1.13	0.971	0.625	0.373	0.352	0.336	0.377	0.277	0.236	0.0972
NCI-H23	0.754	0.434	0.967	0.834	0.944	1.02	0.656	0.339	0.341	0.3	0.141	0.188	0.322	0.276	0.327	0.28	0.198	0.77	0.737
NCI-H322M	0.241	0.229	1.23	1.24	1.13	0.983	0.986	0.818	0.718	0.813	0.666	0.505	0.722	0.707	0.721	0.627	0.529		
NCI-H441	0.565	0.542	0.605	0.254	0.476	0.381	0.28	0.649	0.58	0.548	0.494	0.3	0.244	0.215	0.271	0.22	0.224	0.663	0.838
NCI-H460	0.469	0.537	1.41	1.14	0.862	0.94	0.139	0.663	0.369	0.41	0.448	0.239	0.496	0.571	0.436	0.442	0.291	0.545	0.341
NCI-H520	0.188	0.197	0.62	0.394	0.459	0.179	0.225	0.286	0.313	0.293	0.216	0.208	0.422	0.531	0.481	0.442	0.412	0.189	0.203
NCI-H596	0.567	0.515	0.869	1.02	0.884	0.897	0.892	0.743	0.688	0.651	0.684	0.612	1	0.954	1.01	0.699	0.61	0.66	0.549
NCI-H647	0.16	0.188	0.992	0.981	1	0.884	0.432	0.681	0.613	0.56	0.463	0.398	0.423	0.497	0.537	0.306	0.35	0.198	0.0963
NCI-H650	0.392	0.395	0.738	1.05	0.431	0.549	0.406	0.406	0.38	0.364	0.337	0.219	0.352	0.324	0.327	0.318	0.284	0.52	
NCI-H661	0.829	0.938	0.811	0.734	0.802	0.666	0.395	0.852	0.735	0.748	0.712	0.423	0.56	0.586	0.576	0.474	0.495	0.59	0.54
NCI-H727	0.323	0.421	0.915	0.9	0.896	0.766	0.682	0.675	0.688	0.671	0.752	0.556	0.973	0.859	0.881	0.854	0.828		0.724
NCI-H838	0.256	0.325	0.751	0.71	0.78	0.531	0.325	0.791	0.856	0.705	0.492	0.437	0.405	0.422	0.508	0.438	0.359	0.22	
NCI-H1355	0.671	0.745	1.24	1.19	1.01	0.926	0.528	0.702	0.667	0.663	0.521	0.342	0.41	0.386	0.328	0.328	0.297	0.703	0.466
NCI-H1437	0.338	0.325	0.43	0.409	0.538	0.487	0.258	0.646	0.664	0.63	0.644	0.53	0.562	0.579	0.609	0.527	0.527	0.336	0.296
NCI-H1650		0.305	0.171	0.195	0.206	0.201	0.19	0.794	0.825	0.873	0.807	0.722	0.346	0.365	0.389	0.345	0.362	0.301	
